The source of these data is ChEMBL document CHEMBL4130472, “Synthesis of naphthazarin derivatives and identification of novel thioredoxin reductase inhibitor as potential anticancer agent” (Eur J Med Chem, 2017).

Numbering of substitutions follows the chain as printed. Activity calls are given as the source filed them. The rule behind the calls is not given here.

Experiment [1] addresses T1, Thioredoxin reductase 1, cytoplasmic (Rattus norvegicus, UniProt O89049).
T1 sequence (O89049 whole entry): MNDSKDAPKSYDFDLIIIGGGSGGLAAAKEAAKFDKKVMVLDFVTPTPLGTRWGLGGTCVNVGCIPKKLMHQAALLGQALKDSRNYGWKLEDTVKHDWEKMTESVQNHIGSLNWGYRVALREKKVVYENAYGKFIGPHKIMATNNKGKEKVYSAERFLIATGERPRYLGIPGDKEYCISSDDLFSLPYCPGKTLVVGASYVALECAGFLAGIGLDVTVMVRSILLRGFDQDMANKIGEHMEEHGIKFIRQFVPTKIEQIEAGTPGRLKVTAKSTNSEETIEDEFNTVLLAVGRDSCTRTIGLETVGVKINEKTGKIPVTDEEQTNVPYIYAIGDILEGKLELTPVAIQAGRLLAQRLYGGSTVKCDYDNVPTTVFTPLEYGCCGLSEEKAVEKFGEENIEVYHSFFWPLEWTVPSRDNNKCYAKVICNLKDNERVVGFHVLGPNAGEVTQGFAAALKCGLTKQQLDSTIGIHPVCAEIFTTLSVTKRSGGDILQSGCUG
As to the kind of experiment: (§1) Inhibition of NADPH-reduced rat TrxR1 assessed as suppression of DTNB reduction incubated for 1 hr.

Experiment [2] deals with T2, Thioredoxin reductase 1, cytoplasmic (Rattus norvegicus) (UniProt O89049).
T2 sequence (whole entry): T1 sequence (O89049 whole entry)
The experiment is described as §1.

For experiment [3], the system named is HL-60. As to the kind of experiment: Induction of apoptosis in human HL60 cells 0.5 to 5 uM incubated for 24 hrs in presence of NAC by Annexin V/propidium iodide staining based flow cytometry. In kind it is functional, cell-based. For orientation: Flow cytometry measures light scatter and fluorescence of single cells or particles in a stream.
For experiment [4], the system named is HEK-293T. As to the kind of experiment: Cytotoxicity in HEK293T cells overexpressing TrxR1 (unknown origin) cells assessed as reduction in cell viability at 1 to 5 uM incubated for 48 hrs by MTT assay. Format: functional, cell-based. As to conditions: Homo sapiens. A general note: Formazan colour is commonly taken as a measure of viable cells.
The test system of experiment [5] is HL-60. As to the kind of experiment: Induction of apoptosis in human HL60 cells assessed as increase in condensed and fluorescent nuclei at 1 to 5 uM incubated for 24 hrs by Hoechst 33342 staining based phase contrast and fluorescence microscopy. Format: functional, cell-based.
Experiment [6] deals with HL-60. Briefly: Induction of apoptosis in human HL60 cells assessed as increase in caspase-3 activity at 5 uM incubated for 24 hrs using Ac-DEVD-pNA substrate by colorimetric assay. Format: functional, cell-based.
Experiment [7] concerns HL-60. As to the kind of experiment: Cytotoxicity in human HL60 cells assessed as cell viability at 1 to 5 uM incubated for 24 hrs after pre-treatment with […] before compound addition by MTT assay. Format: functional, cell-based.
A further experiment deals with HepG2. As to the kind of experiment: Cytotoxicity in human HepG2 cells assessed as reduction in cell viability at 1 to 5 uM incubated for 48 hrs by MTT assay. In kind it is functional, cell-based.
Experiment [8] concerns HL-60. As to the kind of experiment: Cytotoxicity in human HL60 cells assessed as cell viability at 1 to 5 uM incubated for 24 hrs by MTT assay. In kind it is functional, cell-based.
A further experiment concerns A549. As to the kind of experiment: Cytotoxicity in human A549 cells assessed as reduction in cell viability at 1 to 5 uM incubated for 48 hrs by MTT assay. Format: functional, cell-based.
Experiment [9] addresses T3, Thioredoxin reductase 1, cytoplasmic (Homo sapiens, UniProt Q16881).
T3 sequence (Q16881 whole entry): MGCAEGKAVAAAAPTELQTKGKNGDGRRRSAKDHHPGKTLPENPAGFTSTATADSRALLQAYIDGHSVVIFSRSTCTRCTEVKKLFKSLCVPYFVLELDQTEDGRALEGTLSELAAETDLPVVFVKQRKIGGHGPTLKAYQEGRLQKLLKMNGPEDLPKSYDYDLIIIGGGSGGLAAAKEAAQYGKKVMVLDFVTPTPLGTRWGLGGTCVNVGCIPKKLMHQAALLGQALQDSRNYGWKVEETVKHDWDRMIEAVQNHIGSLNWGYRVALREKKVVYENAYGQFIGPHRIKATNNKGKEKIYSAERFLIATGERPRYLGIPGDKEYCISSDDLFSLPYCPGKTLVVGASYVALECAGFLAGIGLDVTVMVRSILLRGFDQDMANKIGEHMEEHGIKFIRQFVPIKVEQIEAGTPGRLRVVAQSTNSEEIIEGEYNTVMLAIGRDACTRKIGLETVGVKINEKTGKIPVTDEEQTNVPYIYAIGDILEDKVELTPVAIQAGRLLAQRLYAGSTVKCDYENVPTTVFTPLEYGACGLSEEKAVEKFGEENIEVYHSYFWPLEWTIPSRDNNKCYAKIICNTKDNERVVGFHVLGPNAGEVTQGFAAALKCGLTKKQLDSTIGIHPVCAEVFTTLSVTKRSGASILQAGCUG
As to the kind of experiment: Inhibition of TrxR1 in human HL60 cells incubated for 24 hrs by endpoint insulin reduction assay. Format: cell-based.

Experiment [10] relates to HL-60. Briefly: Cytotoxicity in human HL60 cells assessed as cell viability at 1 to 5 uM incubated for 48 hrs after 24 hrs pre-treatment with 50 uM BSO before compound addition by MTT assay. Format: functional, cell-based.
Experiment [11] relates to HeLa. Briefly: Cytotoxicity in human HeLa cells transfected with shTrxR1 assessed as reduction in cell viability at 1 to 5 uM incubated for 48 hrs by MTT assay. Format: functional, cell-based.
The test system of experiment [12] is HL-60. As to the kind of experiment: Cytotoxicity in human HL60 cells assessed as reduction in cell viability incubated for 48 hrs by trypan blue dye exclusion assay. Format: functional, cell-based. The conditions noted are these: HL-60, 48 h.
Experiment [13] deals with HEK-293T. Briefly: Cytotoxicity in HEK293T cells transfected with pIRESneo construct assessed as reduction in cell viability at 1 to 5 uM incubated for 48 hrs by MTT assay. Format: functional, cell-based. As to conditions: Homo sapiens.
Experiment [14] deals with HL-60. As to the kind of experiment: Cytotoxicity in human HL60 cells assessed as reduction in cell viability incubated for 72 hrs by MTT assay. In kind it is functional, cell-based. As to conditions: HL-60, 72 h.
For experiment [15], the system named is HL-60. Briefly: Induction of apoptosis in human HL60 cells 3 uM incubated for 24 hrs by Annexin V/propidium iodide staining based flow cytometry. In kind it is functional.
Experiment [16] relates to HeLa. As to the kind of experiment: Cytotoxicity in human HeLa cells assessed as reduction in cell viability at 1 to 5 uM incubated for 48 hrs by MTT assay. Format: functional, cell-based.
Experiment [17] has as its system T4, Thioredoxin reductase 1, cytoplasmic (Rattus norvegicus), O89049 [U498C].
T4 sequence (whole entry): T1 sequence (O89049 whole entry) with U498C
Briefly: Inhibition of NADPH-reduced rat TrxR1 U498C mutant assessed as suppression of DTNB reduction at 1 to 5 uM incubated for 1 hr.

As for `CC1=CC(=O)c2c(O)ccc(O)c2C1=O`, the IC50 (usually the midpoint of a concentration-inhibition curve) came to 700 nM in [1], 2400 nM in experiment [9], 860 nM in the experiment on HL-60 [12] and 640 nM in the experiment on HL-60 [14]. The inhibition result in experiment [2] is “Dose-dependent effect”. The outcome with HL-60 [3], in the experiment with HEK-293T [4], in the experiment with HL-60 [6] and in the experiment with HL-60 [7] was inactive. The result with HL-60 [5], in the experiment on HepG2, with HL-60 [8], in the experiment on A549, in the experiment with HL-60 [10] and in the experiment on HeLa [11] was Active. Further, the outcome in the experiment with HEK-293T [13] and with HeLa [16] was Active. The same compound gave an Activity in the experiment on HL-60 [15] of 42%. Further, the inhibition entry in [17] was “inactive”.
